In US7217833B2, “Carboxylic acid compounds for use as surfactants” (Glaxco Group Limited, priority 2002, dated 2007):

Experiments:
Format in all cases: physicochemical
[1] = Content uniformity by dose through use testing; settings: Initial timepoint, 10% w/w surfactant
Protocol: (§1) Salmeterol xinafoate formulations in HFA 134a, of strength 25 μg per actuation, and 10% w/w (relative to drug) of the relevant surfactant compound of formula (I) were prepared in crimped glass bottles using salmeterol xinafoate (8.7 mg), HFA 134a (18 g) and the relevant compound (0.87 mg). The control was prepared without the addition of a surfactant.
The content uniformity of the formulation, the preparation of which is described above, was assessed by dose through use testing. Testing was performed on 10 cans/inhalers at “beginning of use” (BoU) and “end of use” (EoU). After each inhaler had been primed (4 shots fired to waste), actuations 1 and 2 (BoU) were collected. The next 116 actuations of each inhaler were then fired to waste using an automated method and actuations 119 and 120 (EoU) collected.
Assessment of content uniformity was performed at the initial timepoint (following sample preparation). Mean results from the two BoU actuations (1+2 for 10 inhalers) and the two EoU actuations (119+120 for same 10 inhalers) together with the percentage relative standard deviation (% RSD) for the 10 cans are shown in Table 3. […] The presence of the surfactant therefore improves the content uniformity of the inhaler. Furthermore the formulations containing the compound of Example 1, advantageously, show a reduction in the relative standard deviation at the BoU and EoU.

[2] = Particle size by image analysis (Galai CIS-100) of salmeterol xinafoate suspension in HFA 134a
Protocol: as §1
In this measurement, particle size is represented as the equivalent diameter of a circle of equal area to the object. The mean is the average of 4 determinations. The particle size measurement was obtained by transferring the suspensions to a pressurised cell, and video-imaging the sample under shear via a microscope objective.
The equivalent diameter is defined as the diameter of a circle of equal area to the object.
The mean equivalent diameter can be weighted by number, length or volume. e.g. For three particles with equivalent diameters of x, y and z: […]

[3] = Andersen Cascade Impaction of salmeterol xinafoate HFA 134a formulation; settings: Initial timepoint, beginning of use, mean of 3 cans/inhalers, 10% w/w surfactant
Protocol: as §1
The formulation, the preparation of which is described above, was profiled using an Andersen Cascade Impactor. Ten actuations at “beginning of use” (BoU) were collected in the impactor from an inhaler after 4 priming actuations were fired to waste. The drug delivered was then quantified by HPLC analysis. Testing was performed at the initial timepoint (following sample preparation). The results, in Table 2 are shown as the mean analysis of 3 cans/inhalers.
The profile obtained was used to determine total dose emitted dose (ex-valve and ex-actuator) and the fine particle mass (FPM, defined as the sum of stages 3–5). The percentage fine particle mass expresses the FPM as a percentage of the total dose emitted (ex-valve). The FPM is used as a measure of the proportion of the drug likely to reach the therapeutic target in the lungs.

O=C(CCC(F)(F)C(F)(F)F)OCC(OC(=O)CCC(F)(F)C(F)(F)F)C(=O)O (centres unmarked) [Example 1, 2,3-Bis[(4,4,5,5,5-pentafluoronentanoyl)oxy]propanoic acid]
BoU dose ([1]; actuations 1+2, mean of 10 inhalers): 21.2 µg | EoU dose ([1]; actuations 119+120, mean of 10 inhalers): 25.1 µg | Mean Length weighted diameter ([2]; salmeterol xinafoate 25 μg per actuation in HFA 134a with 10% w/w (relative to drug) surfactant, mean of 4 determinations): 21.5 μm | suspension stabilising properties (flocculation of drug particles) ([2]; salmeterol xinafoate formulation in HFA 134a with 10% w/w surfactant): has suspension stabilising properties | Total Dose Emitted (Ex-Actuator) ([3]; 10 actuations): 21.1 µg | Total Dose Emitted (Ex-Valve) ([3]; 10 actuations): 23.9 µg | % FPM (FPM as percentage of total dose emitted ex-valve) [3]: 50.3% | FPM (fine particle mass, sum of stages 3–5) [3]: 12.0 µg
